Data published in patent publication EP0115820A2, “Cephalosporin derivatives and process for their preparation” (Kaken Pharmaceutical Co., Ltd., priority 1983, dated 1984).

Experiments:
Experiment in all cases: Minimum inhibitory concentration (MIC)
Type in all cases: cell-based
[1] = system: Escherichia coli NIHJ JC-2; conditions: NIHJJC2; Escherichia coli NIHJ JC-2; bacterial suspension 10^6 cells/ml; sodium salts tested; read-out: Minimum inhibitory concentration
Excerpt: (§1) The cephalosporin derivatives of the present invention are novel substances, and the antimicrobial activities of their sodium salts are shown by the minimum inhibitory concentrations (MIC, µg/ml) in Table 1, as compared with a typical known cephalosporin compound.

[2] = system: Klebsiella pneumoniae No. 42; conditions: Klebsiella pneumoniae No. 42; bacterial suspension 10^6 cells/ml; sodium salts tested; read-out: Minimum inhibitory concentration
Excerpt: as §1

Proteus vulgaris GN-76 = conditions: GN76; Proteus vulgaris GN-76; bacterial suspension 10^6 cells/ml; sodium salts tested; read-out: Minimum inhibitory concentration
Excerpt: as §1

[3] = system: Pseudomonas aeruginosa E-2; conditions: E2; Pseudomonas aeruginosa E-2; bacterial suspension 10^6 cells/ml; sodium salts tested; read-out: Minimum inhibitory concentration
Excerpt: as §1

[4] = system: Pseudomonas aeruginosa K-13; conditions: K13; Pseudomonas aeruginosa K-13; bacterial suspension 10^6 cells/ml; sodium salts tested; read-out: Minimum inhibitory concentration
Excerpt: as §1

[5] = system: Pseudomonas aeruginosa Y-1; conditions: Y1; Pseudomonas aeruginosa Y-1; bacterial suspension 10^6 cells/ml; sodium salts tested; read-out: Minimum inhibitory concentration
Excerpt: as §1

[6] = system: Serratia marcescens No. 16-2; conditions: NO.162; Serratia marcescens No. 16-2; bacterial suspension 10^6 cells/ml; sodium salts tested; read-out: Minimum inhibitory concentration
Excerpt: as §1

[7] = system: Staphylococcus aureus 209 P JC-1; conditions: 209PJC1; Staphylococcus aureus 209 P JC-1; bacterial suspension 10^6 cells/ml; sodium salts tested; read-out: Minimum inhibitory concentration
Excerpt: as §1

| SMILES | MIC [1] [µg/mL] | MIC [2] [µg/mL] | MIC (Proteus vulgaris GN-76) [µg/mL] | MIC [3] [µg/mL] | MIC [4] [µg/mL] | MIC [5] [µg/mL] | MIC [6] [µg/mL] | MIC [7] [µg/mL] |
| --- | --- | --- | --- | --- | --- | --- | --- | --- |
| CC(=O)Oc1cc(C(=O)NC(C(=O)N[C@@H]2C(=O)N3C(C(=O)O)=C(CSc4nnnn4C)CS[C@H]23)c2csc(N)n2)cc(OC(C)=O)c1OC(C)=O (mixture of isomers) [Example 3, 7β-[DL-2-(3,4,5-triacetoxybenzoylamino)-2-(2-aminothiazol-4-yl)acetamidol-3-(l-methyl-lH-tetrazol-5-yl-thiomethyl)-3-cephem-4-carboxylic acid] | 0.78 | < 0.05 | 0.39 | 0.2 | 0.2 | 0.1 | 0.05 | 0.78 |
| CC(=O)OCC1=C(C(=O)O)N2C(=O)[C@@H](NC(=O)C(NC(=O)c3cccc(OC(C)=O)c3OC(C)=O)c3csc(N)n3)[C@H]2SC1 (mixture of isomers) [Example 14, 7β-[DL-2-(2,3-diacetoxybenzoylamino)-2-(2-aminothiazol-4-yl)acetamido]cephalosporic acid] | 1.56 | 0.39 | 0.78 | 0.39 | 0.39 | 0.2 | 12.5 | 3.12 |
| CCOC(=O)Oc1ccc(C(=O)NC(C(=O)N[C@@H]2C(=O)N3C(C(=O)O)=C(CSc4nnnn4C)CS[C@H]23)c2csc(N)n2)cc1OC(=O)OCC (mixture of isomers) [Example 5, 7β-[DL-2-(3,4-diethoxycarbonyloxy-benzoylamino)-2-(2-aminothiazol-4-yl)acetamido]-3-(l-methyl-lH-tetrazol-5-yl-thiomethyl)-3-cephem-4-carboxylic acid] | 0.78 | 0.2 | 6.25 | 0.39 | 0.2 | 0.1 | 50 | 0.39 |
